Measurements reported in PubChem BioAssay (NCI).
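Following 48 hours of exposure in 96-well plates, responses at five concentrations were used to interpolate endpoints linearly. The concentration for 50% growth inhibition is given as GI50. TGI denotes the concentration required for complete inhibition of growth.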

Key:
Assay in all cases: NCI tumour cell line growth inhibition, 48 h
[1] = tested on: A549 NSCLC
[2] = tested on: BT-549 breast
[3] = tested on: NCI-H23 lung
[4] = tested on: NCI-H460 lung
[5] = tested on: OVCAR-8 ovarian
[6] = tested on: PC-3 prostate
[7] = tested on: RXF 393 renal
[8] = tested on: SF-295 CNS
[9] = tested on: SNB-19 CNS
[10] = tested on: SK-OV-3 ovarian
[11] = tested on: UACC-62 melanoma

For `COc1nn(Cc2ccccc2F)c2ccc([N+](=O)[O-])cc12`, the TGI [1] was > 100 µM, the TGI [2] was > 100 µM and the TGI [3] was > 100 µM. For the same molecule, the TGI [4] was > 100 µM, the TGI [5] was > 100 µM and the TGI [6] was > 100 µM. For the same molecule, the TGI [7] was > 83.6 µM, the TGI [8] was > 100 µM and the TGI [9] was > 100 µM.
Work on `Oc1ccc(-c2nc3cc(C(F)(F)F)ccc3n2CC2CCCN3CCCCC23)cc1` (centres undefined) yielded a TGI [3] of 30.4 µM, a TGI [4] of 28.3 µM and a TGI [5] of 29.5 µM. The TGI [6] was 27.1 µM, the TGI [7] was 34.5 µM and the TGI [8] was 28.4 µM. The TGI [10] was 27.6 µM.
With `CC(C)(C)c1cc(-c2ccc(-c3cc(C(C)(C)C)c(O)c(C(C)(C)C)c3)cc2)cc(C(C)(C)C)c1O` the TGI [1] was > 100 µM, the TGI [2] was > 100 µM and the TGI [3] was > 100 µM. The TGI [5] was > 100 µM, the TGI [6] was > 100 µM and the TGI [7] was > 100 µM. The TGI [8] was > 100 µM, the TGI [10] was > 100 µM and the TGI [9] was > 100 µM. For the same molecule, the TGI [11] was > 100 µM.
For `C=C(C)C1Cc2c(cc(O)c3c(=O)c4ccccc4n(C)c23)O1` (centres undefined), the TGI [1] was > 100 µM, the TGI [3] was > 100 µM and the TGI [4] was > 100 µM. The TGI [7] was 33.9 µM, the TGI [8] was 79.6 µM and the TGI [10] was 84.6 µM. For the same molecule, the TGI [9] was 34.5 µM.
With `O=[N+]([O-])c1ccc(NC2OCC(O)C(O)C2O)cc1` (centres undefined) the TGI [1] was > 100 µM, the TGI [3] was > 100 µM and the TGI [4] was > 100 µM. For the same molecule, the TGI [5] was > 100 µM, the TGI [7] was > 100 µM and the TGI [8] was > 100 µM. For the same molecule, the TGI [10] was > 100 µM, the TGI [9] was > 100 µM and the TGI [11] was > 100 µM.
`COc1ccc(C(=O)N2CCN(c3ccc4c(c3)OCC(=O)N4)CC2)cc1` was tested, and the TGI [1] was > 100 µM, the TGI [2] was > 100 µM and the TGI [3] was > 100 µM. The TGI [4] was > 100 µM, the TGI [5] was > 100 µM and the TGI [6] was > 100 µM. For the same molecule, the TGI [8] was > 100 µM, the TGI [10] was > 100 µM and the TGI [9] was > 100 µM. For the same molecule, the TGI [11] was > 100 µM.
For `O=c1nc2n(cc1/C=C\Br)C1CC(O)C(CO2)O1` (centres undefined), the TGI [1] was > 100 µM, the TGI [2] was > 100 µM and the TGI [3] was > 100 µM. For the same molecule, the TGI [4] was > 100 µM, the TGI [5] was > 100 µM and the TGI [7] was 57 µM. For the same molecule, the TGI [8] was > 100 µM, the TGI [10] was > 100 µM and the TGI [9] was > 100 µM. For the same molecule, the TGI [11] was > 100 µM.
With `C=C(C)CCC1CCCCC(CN(C)C)C1=O` (centres undefined) the TGI [1] was > 100 µM, the TGI [3] was > 100 µM and the TGI [4] was > 100 µM. The TGI [5] was > 100 µM, the TGI [6] was > 100 µM and the TGI [8] was > 100 µM. For the same molecule, the TGI [10] was > 100 µM, the TGI [9] was > 100 µM and the TGI [11] was > 100 µM.
In the case of `N#CCCC(CC#N)N1CCN(CCO)CC1` (centres undefined), the TGI [1] is reported as > 100 µM, the TGI [3] is reported as > 100 µM and the TGI [4] is reported as > 100 µM. For the same molecule, the TGI [5] was > 100 µM, the TGI [7] was > 100 µM and the TGI [8] was > 100 µM. The TGI [10] was > 100 µM, the TGI [9] was > 100 µM and the TGI [11] was > 100 µM.
With `COC1=CC(=O)C(O)=C(C[C@@]2(C)[C@@H]3CCC[C@H](COC(=O)CCCCCNC(=O)OC(C)(C)C)[C@@]3(C)CC[C@@H]2C)C1=O` the TGI [1] was > 10 µM, the TGI [5] was > 10 µM and the TGI [6] was > 10 µM. The TGI [7] was > 10 µM, the TGI [8] was > 10 µM and the TGI [10] was > 10 µM. For the same molecule, the TGI [9] was > 10 µM.
`CN1CCN(CC(=O)Nc2ccc3ncnc(Nc4ccc(Oc5cccc(C(F)(F)F)c5)c(Cl)c4)c3c2)CC1` gave a GI50 [2] of 1.47 µM, a TGI [2] of 2.85 µM and a GI50 [4] of 1.74 µM. For the same molecule, the TGI [4] was 3.29 µM, the GI50 [6] was 1.69 µM and the TGI [6] was 3.26 µM. It also gave a GI50 [7] of 1.41 µM, a TGI [7] of 2.89 µM and a GI50 [8] of 1.81 µM. For the same molecule, the TGI [8] was 3.31 µM, the GI50 [11] was 1.83 µM and the TGI [11] was 3.4 µM.
